Source: paper PMC8795745, “A GSH/CB Dual-Controlled Self-Assembled Nanomedicine for High-Efficacy Doxorubicin-Resistant Breast Cancer Therapy” (Frontiers in Pharmacology, 2022)
Values belong to the compound of their own block, whether it stands above or below them. Bridge positions count the residues as written; N and C are the ends. Square brackets hold non-standard residues; d marks the D form. Peptide text beside a SMILES is read from it. * marks the point of attachment. Acetyl(2-naphthyl) = O=C(Cc1ccc2ccccc2c1)*

How the values were obtained:
MCF-7 cells [1] = assay type: cell-based
Protocol: (§1) MTT assay was performed as described previously.^[6^] Briefly, the cells (5 × 10^3 cells/well) were seeded in 96-well culture plates (Coring) and incubated overnight. Then cells were exposed to various concentrations of cyclic-1a and incubated at 37 °C for 72 h. After that, MTT stock solution (0.5 mg/mL) was added into each well and cultured for additional 4 h. The MTT treated cells were […] with 150 μL of DMSO. The absorbance in each individual well was measured by using a microplate spectrophotometer at […] (SpectraMax M2e, Molecular Devices Inc. USA).

MCF-7 cells [2] = assay type: cell-based; remark: listed apart in the source
MCF-7/DOX cells = experiment: MTT assay, MCF-7/DOX cells; assay type: cell-based; details: Homo sapiens, MCF7-DOX, mean ± SD, n=3
Protocol: as §1

[3] = Body weight and histological examination of organs in tumor-bearing mice; assay type: in vivo, BALB/c nude mice; details: cyclic-1a 20 and 60 mg/kg
Protocol: Female BALB/c nude mice (6 weeks old) were purchased from the Experimental Animal Center of Yangzhou University. The experiments involving animals were approved by the Animal Ethics Committee of China Pharmaceutical University (Ethic approval number: 2020-07-003). In vivo anticancer activity assay was performed as described previously.^[9^] Briefly, MCF-7/DOX cells (200 μL, 1 × 10^7 cells) were implanted into the right mammary fat pad of nude mice. Once tumors grew to 80-100 mm^3, mice were randomly assigned into four groups and treated intraperitoneally with vehicle, cyclic-1a (20 mg/kg), cyclic-1a (60 mg/kg) or DOX (5 mg/kg) every 3 days for a total of six times. Tumor volume and body weight were measured every 3 days. Tumor volume was calculated using the formula (c × c × d)/2 (c, the smallest diameter; d, the largest diameter).
Immunohistochemical stains against Ki67 and cleaved caspase 3 were performed using immunohistochemistry kit (KeyGen, Nanjing, China) according to the manufacturer’s instructions. Mouse organs (heart, liver, spleen, lung and kidney) tissues were fixed in 4% paraformaldehyde at 4 °C for 48 h, and then embedded in paraffin wax, sectioned (5 µm) and processed for H&E staining. Inverted fluorescence microscope was used to photograph all sections.

CB enzyme (cathepsin B) = target: T1, CB enzyme (cathepsin B) (Homo sapiens, UniProt P07858); experiment: Cathepsin B conversion of linear-1a into linear-1b (LC-MS); assay type: biochemical; details: after GSH 8 mM for 12 h, then CB 1 U/mL, 37 °C, PBS pH 7.4; at 20 h; LC-MS peak area; mean, n=3
T1 construct: purchased Sigma-Aldrich (St. Louis, MO, USA)
Protocol: Molecular self-assembly was performed as described previously.^[1] Briefly, the cyclic-1a was diluted into the phosphate-buffered saline (PBS; pH 7.4) to a final concentration of 1600 µM and incubated at 37 °C. The GSH (8 mM) was then added to the above solution for 12 h at 37 °C to trigger the first step of self-assembly. Afterward, cathepsin B was added to the solution for 12 h at 37 °C to trigger the second step of self-assembly (1 U/mL).
2 mL of the sample prepared by part 3 were adding GSH (8 mM) for 12 h, and then added 1 U/mL of cathepsin B, 100 µL of each sample was collected at each time point and 100 µL methanol was added to terminate the reaction. The method of detection was similar to part 3.1.

SMILES: N=C(N)NCCC[C@H](NC(=O)CNC(=O)CNC(=O)[C@@H]1CSSC[C@H](NC(=O)Cc2ccc3ccccc3c2)C(=O)N[C@H](Cc2ccccc2)C(=O)N[C@H](Cc2ccccc2)C(=O)N[C@H](Cc2ccc(O)cc2)C(=O)N[C@H](CCCCN)C(=O)N1)C(=O)N[C@@H](CCCNC(=N)N)C(=O)NCC(=O)N[C@@H](CCCCN)C(=O)NCC(=O)NCC(=O)N[C@@H](Cc1c[nH]cn1)C(=O)N[C@@H](Cc1c[nH]cn1)C(=O)N[C@@H](Cc1c[nH]cn1)C(=O)N[C@@H](CCCNC(=N)N)C(=O)N[C@@H](CCCNC(=N)N)C(=O)NCC(=O)N[C@@H](CC(=O)O)C(=O)N[C@@H](CO)C(=O)O [cyclic-1a] ({Acetyl(2-naphthyl)}-C[dF][dF][dY][dK]CGGRRGKGGHHHRRGDS-OH; disulfide 1-6)
cytotoxicity to MCF-7 cells (MTT) (MCF-7 cells [1]): no obvious cytotoxicity | cellular uptake ability, MCF-7 cells (MCF-7 cells [2]): strong cellular uptake ability

IC50 (MCF-7/DOX cells): 83.3 ± 6.13 µM
SMILES: COc1cccc2c1C(=O)c1c(O)c3c(c(O)c1C2=O)C[C@@](O)(C(=O)CO)C[C@@H]3O[C@H]1C[C@H](N)[C@H](O)[C@H](C)O1 [doxorubicin, Doxorubicin]
body weight of mice ([3]; DOX 5 mg/kg, intraperitoneally every 3 days, six times, n=6): gradually increased throughout the experiments except for the DOX-treated group | pathological lesions in organs (H&E) ([3]; heart, liver, spleen, lung and kidney, DOX 5 mg/kg intraperitoneally): lesions of the heart and kidney were detected

linear-1a converted into linear-1b (CB enzyme (cathepsin B)): more than 90%
SMILES: N=C(N)NCCC[C@H](NC(=O)CNC(=O)CNC(=O)[C@H](CS)NC(=O)[C@@H](CCCCN)NC(=O)[C@@H](Cc1ccc(O)cc1)NC(=O)[C@@H](Cc1ccccc1)NC(=O)[C@@H](Cc1ccccc1)NC(=O)[C@H](CS)NC(=O)Cc1ccc2ccccc2c1)C(=O)N[C@@H](CCCNC(=N)N)C(=O)NCC(=O)N[C@@H](CCCCN)C(=O)NCC(=O)NCC(=O)N[C@@H](Cc1c[nH]cn1)C(=O)N[C@@H](Cc1c[nH]cn1)C(=O)N[C@@H](Cc1c[nH]cn1)C(=O)N[C@@H](CCCNC(=N)N)C(=O)N[C@@H](CCCNC(=N)N)C(=O)NCC(=O)N[C@@H](CC(=O)O)C(=O)N[C@@H](CO)C(=O)O [linear-1a] ({Acetyl(2-naphthyl)}-C[dF][dF][dY][dK]CGGRRGKGGHHHRRGDS-OH)
